This test concerns the target T1, recombinant human pancreatic GLK (Homo sapiens, UniProt P35557).
T1 sequence (P35557 1-465): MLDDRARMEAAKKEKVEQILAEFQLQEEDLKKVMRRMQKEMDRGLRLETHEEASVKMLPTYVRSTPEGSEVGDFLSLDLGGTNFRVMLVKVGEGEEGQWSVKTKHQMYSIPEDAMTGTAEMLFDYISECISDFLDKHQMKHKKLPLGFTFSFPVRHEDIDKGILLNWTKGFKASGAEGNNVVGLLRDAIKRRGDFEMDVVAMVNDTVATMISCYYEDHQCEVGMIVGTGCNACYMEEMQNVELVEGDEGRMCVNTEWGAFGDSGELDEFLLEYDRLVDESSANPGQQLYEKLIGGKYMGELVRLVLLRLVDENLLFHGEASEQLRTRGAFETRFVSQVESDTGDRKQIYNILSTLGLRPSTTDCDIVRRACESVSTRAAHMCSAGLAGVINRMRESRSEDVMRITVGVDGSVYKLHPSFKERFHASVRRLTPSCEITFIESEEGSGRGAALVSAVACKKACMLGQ
Put plainly: biochemical.

Consider `COC[C@H](C)Oc1cc(OCc2ccccc2)cc(-c2nc3cccnc3[nH]2)c1` [Example 1, 2-{3-(Benzyloxy)-5-[(1S)-2-methoxy-1-methylethoxy]phenyl}-3H-imidazo[4,5-b]pyridine], for which the EC50 (commonly the concentration needed to bring the measured effect to its halfway point) is 0.6 µM.

The values above are taken from patent US20110059941A1, “2-PHENYL SUBSTITUTED IMIDAZOL [4,5B] PYRIDINE/PYRAZINE AND PURINE DERIVATIVES AS GLUCOKINASE MODULATORS” (priority 2005, published 2011).
